Test results: publication PMC5764337 (PLoS ONE, 2018)

How the values were obtained:
Assay type in all cases: biochemical
[1] = biological target: A/PR8-I222V virus NA (Influenza A virus (H3N2), UniProt V5P6L4, I222V)
[2] = biological target: A/PR8-S331G virus NA (Influenza A virus (H3N2), UniProt A0A193ACB1, S331G)
[3] = biological target: A/PR8-S331R virus NA (Influenza A virus (H3N2), UniProt A0A193ACB1, S331R)
[4] = biological target: B/YAM-D342S virus NA (Influenza B virus, UniProt Q90021, D342S)
[5] = biological target: B/YAM-A395T virus NA (Influenza B virus, UniProt C0LT34, A395T)
[6] = biological target: B/YAM-A395D virus NA (Influenza B virus, UniProt C0LT34, A395D)
[7] = biological target: B/YAM-A395V virus NA (Influenza B virus, UniProt A0A1W5M8K9, A395V)
[8] = read-out: NA enzyme inhibition assay (mean IC50 ± SD)

CCC(CC)[C@H](NC(C)=O)[C@@H]1[C@H](O)[C@@H](C(=O)O)C[C@H]1N=C(N)N [Peramivir, peramivir]
fold increase in IC50 over A/PR8-WT [1]: 0.1 ± 0.01 (1) fold
IC50 [1, 8]: 0.1 nM
fold increase in IC50 over A/PR8-WT [2]: 0.3 ± 0.3 (3) fold
IC50 [2, 8]: 0.3 nM
fold increase in IC50 over A/PR8-WT [3]: 0.2 ± 0.06 (2) fold
IC50 [3, 8]: 0.2 nM
fold increase in IC50 over B/BR/60/08 [4]: 0.4 ± 0.12 (0.8) fold
IC50 [4, 8]: 0.4 nM
fold increase in IC50 over B/BR/60/08 [5]: 0.6 ± 0.08 (1.2) fold
IC50 [5, 8]: 0.6 nM
fold increase in IC50 over B/BR/60/08 [6]: 0.5 ± 0.36 (1) fold
IC50 [6, 8]: 0.5 nM
fold increase in IC50 over B/BR/60/08 [7]: 0.8 ± 0.12 (1.6) fold
IC50 [7, 8]: 0.8 nM
